According to patent publication US9364467B2 (Salix Pharmaceuticals, Ltd, priority 2012, dated 2016):
Converted amounts (≈) assume the structure as drawn. Where two headings read alike, the source gives them in different places.

Experiments:
S. haemolyticus = assay: In vitro activity (MIC) against S. haemolyticus strains; details: Staphylococcus haemolyticus
[1] = tested on: Staphylococcus spp. strains; assay: In vitro activity (MIC) against Staphylococcus spp. strains
S. aureus = assay: In vitro activity (MIC) against S. aureus strains; details: Staphylococcus aureus
[2] = tested on: Enterococcus spp. strains; assay: In vitro activity (MIC) against Enterococcus spp. strains

CO[C@H]1/C=C/O[C@@]2(C)Oc3c(C)c(O)c4c(O)c(c5c(nc6cc(C)ccn65)c4c3C2=O)NC(=O)/C(C)=C\C=C\[C@H](C)[C@H](O)[C@@H](C)[C@@H](O)[C@@H](C)[C@H](OC(C)=O)[C@@H]1C [Rifaximin, reference compound]
MIC (S. haemolyticus; strain S. haemolyticus 243): 0.06 µg/mL (≈ 0.0763 µM) | MIC (S. haemolyticus; strain S. haemolyticus 276): 0.12 µg/mL (≈ 0.153 µM) | MIC (S. haemolyticus; strain S. haemolyticus 955): 0.12 µg/mL (≈ 0.153 µM) | MIC (S. haemolyticus; strain S. haemolyticus 982): 0.06 µg/mL (≈ 0.0763 µM) | MIC50 ([1]; Staphylococcus): 0.25 µg/mL (≈ 0.318 µM) | MIC90 ([1]; Staphylococcus): 1 µg/mL (≈ 1.27 µM) | Range (MIC) ([1]; Staphylococcus spp. strains): 0.03 to 1 µg/mL | MIC ([1]; Staphylococcus, read-out: Mode (MIC), Staphylococcus spp. strains): 0.5 µg/mL (≈ 0.636 µM) | MIC ([1]; Staphylococcus, strain S. spp. 1102): 0.06 µg/mL (≈ 0.0763 µM) | MIC ([1]; Staphylococcus, strain S. spp. 1187): 0.03 µg/mL (≈ 0.0382 µM) | MIC ([1]; Staphylococcus, strain S. spp. 1195): 0.06 µg/mL (≈ 0.0763 µM) | MIC ([1]; Staphylococcus, strain S. spp. 1256): 0.12 µg/mL (≈ 0.153 µM) | MIC ([1]; Staphylococcus, strain S. spp. 1312): 0.25 µg/mL (≈ 0.318 µM) | MIC ([1]; Staphylococcus, strain S. spp. 1689): 1 µg/mL (≈ 1.27 µM) | MIC ([1]; Staphylococcus, strain S. spp. 1745): 0.06 µg/mL (≈ 0.0763 µM) | MIC (S. aureus; strain ATCC S. aureus 29213): 0.015 µg/mL (≈ 0.0191 µM) | MIC (S. aureus; strain S. aureus 215): 1 µg/mL (≈ 1.27 µM) | MIC (S. aureus; strain S. aureus 234): 0.25 µg/mL (≈ 0.318 µM) | MIC (S. aureus; strain S. aureus 236): 1 µg/mL (≈ 1.27 µM) | MIC (S. aureus; strain S. aureus 237): 0.06 µg/mL (≈ 0.0763 µM) | MIC (S. aureus; strain S. aureus 238): 0.03 µg/mL (≈ 0.0382 µM) | MIC (S. aureus; strain S. aureus 246): 0.5 µg/mL (≈ 0.636 µM) | MIC (S. aureus; strain S. aureus 252): 0.5 µg/mL (≈ 0.636 µM) | MIC (S. aureus; strain S. aureus 253): 0.12 µg/mL (≈ 0.153 µM) | MIC (S. aureus; strain S. aureus 267): 1 µg/mL (≈ 1.27 µM) | MIC (S. aureus; strain S. aureus 272): 0.25 µg/mL (≈ 0.318 µM) | MIC (S. aureus; strain S. aureus 279): 0.03 µg/mL (≈ 0.0382 µM) | MIC (S. aureus; strain S. aureus 327): 1 µg/mL (≈ 1.27 µM) | MIC (S. aureus; strain S. aureus 328): 0.5 µg/mL (≈ 0.636 µM) | MIC (S. aureus; strain S. aureus 329): 1 µg/mL (≈ 1.27 µM) | MIC (S. aureus; strain S. aureus 339): 1 µg/mL (≈ 1.27 µM) | MIC (S. aureus; strain S. aureus 345): 0.25 µg/mL (≈ 0.318 µM) | MIC (S. aureus; strain S. aureus 355): 0.5 µg/mL (≈ 0.636 µM) | MIC (S. aureus; strain S. aureus 406): 0.5 µg/mL (≈ 0.636 µM) | MIC (S. aureus; strain S. aureus 408): 0.25 µg/mL (≈ 0.318 µM) | MIC (S. aureus; strain S. aureus 409): 0.12 µg/mL (≈ 0.153 µM) | MIC (S. aureus; strain S. aureus 416): 0.5 µg/mL (≈ 0.636 µM) | MIC (S. aureus; strain S. aureus 425): 0.5 µg/mL (≈ 0.636 µM) | MIC (S. aureus; strain S. aureus 436): 0.06 µg/mL (≈ 0.0763 µM) | MIC (S. aureus; strain S. aureus 475): 0.5 µg/mL (≈ 0.636 µM) | MIC ([2]; ATCC E. faecalis 29212): 4 µg/mL (≈ 5.09 µM) | MIC ([2]; E. faecalis 181): 4 µg/mL (≈ 5.09 µM) | MIC ([2]; E. faecalis 186): 4 µg/mL (≈ 5.09 µM) | MIC ([2]; E. faecalis 187): 4 µg/mL (≈ 5.09 µM) | MIC ([2]; E. faecalis 193): 4 µg/mL (≈ 5.09 µM) | MIC ([2]; E. faecalis 194): 4 µg/mL (≈ 5.09 µM) | MIC ([2]; E. faecalis 200): > 16 µg/mL | MIC ([2]; E. faecalis 204): 4 µg/mL (≈ 5.09 µM) | MIC ([2]; E. faecalis 205): 4 µg/mL (≈ 5.09 µM) | MIC ([2]; E. faecalis 210): 4 µg/mL (≈ 5.09 µM) | MIC ([2]; E. faecalis 227): > 16 µg/mL | MIC ([2]; E. faecalis 228): 4 µg/mL (≈ 5.09 µM) | MIC ([2]; E. faecalis 232): 4 µg/mL (≈ 5.09 µM) | MIC ([2]; E. faecalis 235): 16 µg/mL (≈ 20.4 µM) | MIC ([2]; E. faecalis 237): 4 µg/mL (≈ 5.09 µM) | MIC ([2]; E. faecalis 239): 8 µg/mL (≈ 10.2 µM) | MIC ([2]; E. faecalis 242): > 16 µg/mL | MIC ([2]; E. faecalis 243): 16 µg/mL (≈ 20.4 µM) | MIC ([2]; E. faecalis 245): > 16 µg/mL | MIC ([2]; E. faecalis 249): 4 µg/mL (≈ 5.09 µM) | MIC ([2]; E. faecalis 250): 4 µg/mL (≈ 5.09 µM) | MIC ([2]; E. faecalis 251): 8 µg/mL (≈ 10.2 µM) | MIC ([2]; E. faecalis 255): 4 µg/mL (≈ 5.09 µM) | MIC ([2]; E. faecium 8): 4 µg/mL (≈ 5.09 µM) | MIC ([2]; E. faecium 13): 4 µg/mL (≈ 5.09 µM) | MIC ([2]; E. faecium 174): 8 µg/mL (≈ 10.2 µM) | MIC ([2]; E. faecium 185): > 16 µg/mL | MIC ([2]; E. faecium 188): 8 µg/mL (≈ 10.2 µM) | MIC ([2]; E. faecium 189): 4 µg/mL (≈ 5.09 µM) | MIC ([2]; E. faecium 190): 16 µg/mL (≈ 20.4 µM) | MIC ([2]; E. faecium 191): > 16 µg/mL | MIC ([2]; E. faecium 192): 2 µg/mL (≈ 2.54 µM) | MIC ([2]; E. faecium 198): 16 µg/mL (≈ 20.4 µM) | MIC ([2]; E. faecium 199): 8 µg/mL (≈ 10.2 µM) | MIC ([2]; E. faecium 201): 16 µg/mL (≈ 20.4 µM) | MIC ([2]; E. faecium 203): 4 µg/mL (≈ 5.09 µM) | MIC ([2]; E. faecium 207): 4 µg/mL (≈ 5.09 µM) | MIC ([2]; E. faecium 208): 2 µg/mL (≈ 2.54 µM) | MIC ([2]; E. faecium 209): 16 µg/mL (≈ 20.4 µM) | MIC ([2]; E. faecium 212): > 16 µg/mL | MIC ([2]; E. faecium 215): > 16 µg/mL | MIC ([2]; E. faecium 217): 8 µg/mL (≈ 10.2 µM) | MIC ([2]; E. faecium 221): 8 µg/mL (≈ 10.2 µM) | MIC ([2]; E. faecium 222): > 16 µg/mL | MIC ([2]; E. faecium 223): > 16 µg/mL | MIC ([2]; E. faecium 225): 4 µg/mL (≈ 5.09 µM) | MIC ([2]; E. faecium 229): 2 µg/mL (≈ 2.54 µM) | MIC ([2]; E. faecium 230): 8 µg/mL (≈ 10.2 µM) | MIC ([2]; E. faecium 231): 16 µg/mL (≈ 20.4 µM) | MIC ([2]; E. faecium 236): 2 µg/mL (≈ 2.54 µM) | MIC ([2]; E. faecium 238): 16 µg/mL (≈ 20.4 µM) | MIC ([2]; E. faecium 240): > 16 µg/mL | MIC ([2]; E. faecium 248): > 16 µg/mL | MIC50 ([2]; Enterococcus): 8 µg/mL (≈ 10.2 µM) | MIC90 ([2]; Enterococcus): > 16 µg/mL | MIC ([2]; Enterococcus, read-out: Mode (MIC), Enterococcus spp. strains): 4 µg/mL (≈ 5.09 µM)
